Assay results as given in patent US9708286B2, “Ingenol-3-acylates III and ingenol-3-carbamates” (LEO Laboratories Limited, priority 2010, dated 2017).

Tests used:
Assay type in all cases: cell-based
[1] = system: PMN's (polymorphonuclear leukocytes); assay: Neutrophil oxidative burst; conditions: Leukocyte, 40 min, read-out: Neutrophil oxidative burst Rel EC50 range, PMN from buffy coats, 40 min at RT, hydroethidine fluorescence; normalized to 5×10^−7 M PEP0005
Summary of the method: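 Human buffy-coat neutrophils (2.5×10^5/well) in HBSS with 0.1% BSA, 5 mM glucose treated with compound premixed with 10 μM hydroethidine for 40 min at RT; fluorescence read at 485/579 nm. Normalized to 5×10^−7 M PEP0005; Rel EC50 is midway between fitted top and bottom, Abs EC50 gives 50% of PEP0005 maximum.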

[2] = system: Primary human epidermal keratinocytes, HeKa; assay: HeKa cytokine release (IL-8); conditions: Homo sapiens, HEKa, 6 h, read-out: HeKa cytokine release (IL-8) Rel EC50 range
Summary of the method: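 Seeded cells exposed to compound dilutions for 6 h at 37° C; IL-8 in supernatant quantified by MSD sandwich electrochemiluminescence immunoassay. Effects normalized to positive control (1.5×10^−7 M PEP0005), four-parameter sigmoidal fit; Rel EC50 is concentration midway between fitted top and bottom.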

HeLa cells = assay: Necrosis assay; conditions: Homo sapiens, HeLa, 0.5 h, read-out: HeLa necrosis EC50 range
Summary of the method: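 HeLa cells treated with compound at 10 μM to 400 μM (final) for 30 min at 37° C., viability then measured by PrestoBlue fluorescence (ex 535/em 630 nm). Normalized to 1% DMSO and 400 μM ingenol mebutate controls; AbsEC50 from four-parameter sigmoidal fit.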

| SMILES | EC50 [1] [nM] | EC50 [2] [nM] | EC50 (HeLa cells) [nM] |
| --- | --- | --- | --- |
| CC1=C[C@]23C(=O)[C@@H](C=C(CO)[C@@H](O)[C@]2(O)[C@H]1OC(=O)c1c(-c2ccc(S(C)(=O)=O)cc2)cnn1C)[C@H]1[C@@H](C[C@H]3C)C1(C)C [Compound 556, Ingenol 3-(2-methyl-4-(4-methylsulfonylphenyl)pyrazole-3-carboxylate)] | 20 to 100 | 20 to 100 | 150000 to 350000 |
| CC1=C[C@]23C(=O)[C@@H](C=C(CO)[C@@H](O)[C@]2(O)[C@H]1OC(=O)c1c(-c2ccccc2)cnn1C)[C@H]1[C@@H](C[C@H]3C)C1(C)C [Compound 557, Ingenol 3-(2-methyl-4-phenyl-pyrazole-3-carboxylate)] | < 20 | < 20 | < 150000 |
| CC1=C[C@]23C(=O)[C@@H](C=C(CO)[C@@H](O)[C@]2(O)[C@H]1OC(=O)c1c(C)nn(-c2ccccc2)c1C)[C@H]1[C@@H](C[C@H]3C)C1(C)C [Compound 558, Ingenol 3-(3,5-dimethyl-1-phenyl-pyrazole-4-carboxylate)] | < 20 | < 20 | < 150000 |
| CC1=C[C@]23C(=O)[C@@H](C=C(CO)[C@@H](O)[C@]2(O)[C@H]1OC(=O)c1c(-c2ccccc2)nn(C)c1C)[C@H]1[C@@H](C[C@H]3C)C1(C)C [Compound 559, Ingenol 3-(1,5-dimethyl-3-phenyl-pyrazole-4-carboxylate)] | < 20 | < 20 | 150000 to 350000 |
| CC1=C[C@]23C(=O)[C@@H](C=C(CO)[C@@H](O)[C@]2(O)[C@H]1OC(=O)c1c(C)nn(Cc2ccccc2)c1C)[C@H]1[C@@H](C[C@H]3C)C1(C)C [Compound 560, Ingenol 3-(1-benzyl-3,5-dimethyl-pyrazole-4-carboxylate)] | < 20 | < 20 | < 150000 |
| CC1=C[C@]23C(=O)[C@@H](C=C(CO)[C@@H](O)[C@]2(O)[C@H]1OC(=O)c1c2c(nn1C)CCCC2)[C@H]1[C@@H](C[C@H]3C)C1(C)C [Compound 563, Ingenol 3-(2-methyl-4,5,6,7-tetrahydroindazole-3-carboxylate)] | < 20 | < 20 | < 150000 |
| CC1=C[C@]23C(=O)[C@@H](C=C(CO)[C@@H](O)[C@]2(O)[C@H]1OC(=O)c1c(C)n(C)c2ccccc12)[C@H]1[C@@H](C[C@H]3C)C1(C)C [Compound 564, Ingenol 3-(1,2-dimethylindole-3-carboxylate)] | < 20 | < 20 | < 150000 |
| COc1ccc2c(c1)c(C(=O)O[C@H]1C(C)=C[C@]34C(=O)[C@@H](C=C(CO)[C@@H](O)[C@]13O)[C@H]1[C@@H](C[C@H]4C)C1(C)C)c(C)n2C [Compound 565, Ingenol 3-(5-methoxy-1,2-dimethyl-indole-3-carboxylate)] | < 20 | < 20 | < 150000 |
| CC1=C[C@]23C(=O)[C@@H](C=C(CO)[C@@H](O)[C@]2(O)[C@H]1OC(=O)c1c(C)nn(C)c1C)[C@H]1[C@@H](C[C@H]3C)C1(C)C [Compound 566, Ingenol 3-(1,3,5-trimethylpyrazole-4-carboxylate)] | 20 to 100 | 20 to 100 | > 350000 |
| CC1=C[C@]23C(=O)[C@@H](C=C(CO)[C@@H](O)[C@]2(O)[C@H]1OC(=O)c1nonc1C)[C@H]1[C@@H](C[C@H]3C)C1(C)C [Compound 567, Ingenol 3-(4-methyl-1,2,5-oxadiazole-3-carboxylate)] | 20 to 100 | > 100 | > 350000 |
| COc1nc(C)c(C(=O)O[C@H]2C(C)=C[C@]34C(=O)[C@@H](C=C(CO)[C@@H](O)[C@]23O)[C@H]2[C@@H](C[C@H]4C)C2(C)C)s1 [Compound 568, Ingenol 3-(2-methoxy-4-methyl-thiazole-5-carboxylate)] | 20 to 100 | 20 to 100 | 150000 to 350000 |
